Source: patent EP0728480A1, “Use of ifenprodil for treatment of elevated intraocular pressure” (ROHTO PHARMACEUTICAL CO., LTD., priority 1995, dated 1996)
Structures can show the parent of a compound that is named as a salt.

System: rabbits with normal intraocular pressure
Assay: Experiment 1: ocular hypotensive effect of eye drops (applanation pneumatonograph)
Format: in vivo, Male Dutch species coloured rabbits
Conditions: for Difference in IOP between the control and test eyes: 50 µl instilled
Description: The ocular hypotensive effect of the eye drops of this invention was investigated in rabbits. The same experiment was also conducted using a representative β-adrenergic blocking agent, and its ocular hypotensive effect was compared with that of eye drops of this invention. Methods: According to the formulations described in Examples 1, 2 and 3, three kinds of eye drops respectively containing 0.5, 0.05 and 0.005% of the compound (1) were prepared. As a negative control, eye drops not containing compound (1), which is eye drops described in Reference Example below, were used. The positive control was commercially available eye drops containing timolol maleate (0.5% equivalent of free base) as an active ingredient. Male Dutch species coloured rabbits (body weight: ca. 2 kg) with normal intraocular pressure were used in the experiment. Each of the test solutions (three kinds of eye drops containing 0.5, 0.05 or 0.005% of ifenprodil) (50 µl) was instilled into one eye of each rabbit, and the control solution free of ifenprodil (50 µl), the eye drops described in Reference Example, into the fellow eye which served as a control. For each solution, six rabbits were used. After anesthesia of the corneal surface by instillating 5 µl of 0.4% oxybuprocaine hydrochloride, the intraocular pressure was measured using an applanation pneumatonograph (Alcon) before and after the instillation of the test solution and control solution. Measurement of intraocular pressure after the instillation was conducted with one-hour intervals until six hours - nine hours post-instillation.

[1] = eye drops 0.5%, one hour after instillation, difference from control eye

Structure (SMILES) | IOP reduction (eye drops 0.005%) | Difference in IOP between the control and test eyes (eye drops 0.005% free base, 1 hr) | Difference in IOP between the control and test eyes (eye drops 0.005% free base, 2 hr) | Difference in IOP between the control and test eyes (eye drops 0.005% free base, 4 hr) | Difference in IOP between the control and test eyes (eye drops 0.005% free base, 6 hr) | Difference in IOP between the control and test eyes (eye drops 0.05% free base, 1 hr) | Difference in IOP between the control and test eyes (eye drops 0.05% free base, 2 hr) | Difference in IOP between the control and test eyes (eye drops 0.05% free base, 4 hr) | Difference in IOP between the control and test eyes (eye drops 0.05% free base, 6 hr) | average IOP reduction (eye drops 0.05%, one hour after administration) | duration of ocular hypotensive effect (eye drops 0.5%) | time of maximal IOP reduction (eye drops 0.5%) | Difference in IOP between the control and test eyes (eye drops 0.5% free base, 1 hr) | Difference in IOP between the control and test eyes (eye drops 0.5% free base, 2 hr) | Difference in IOP between the control and test eyes (eye drops 0.5% free base, 4 hr) | Difference in IOP between the control and test eyes (eye drops 0.5% free base, 6 hr) | average IOP reduction [1] | average IOP reduction (eye drops 0.5%, two hours after administration)
CC(C(O)c1ccc(O)cc1)N1CCC(Cc2ccccc2)CC1 (centres unmarked) [Compound (1), 2-(4-benzylpiperidino)-1-(4-hydroxyphenyl)-1-propanol] | produced IOP reduction which varies depending on concentration of compound (1) | -0.79 mmHg | -0.75 mmHg | -0.79 mmHg | -0.17 mmHg | -1.79 mmHg | -0.96 mmHg | -0.67 mmHg | -0.38 mmHg | 1.8 mmHg | retained for nine hours after instillation | one hour after instillation | -2.67 mmHg | -2.17 mmHg | -1.17 mmHg | -1.13 mmHg | 2.7 mmHg | –
CC(C)(C)NC[C@H](O)COc1nsnc1N1CCOCC1 [Timolol maleate, timolol maleate, reference compound] | – | – | – | – | – | – | – | – | – | – | – | – | -0.88 mmHg | -0.58 mmHg | -0.25 mmHg | -0.13 mmHg | 0.9 mmHg | 0.6 mmHg
